Laboratory results published in patent US20230192699A1, “COMPOUNDS AS CASEIN KINASE INHIBITORS” (GRITSCIENCE BIOPHARMACEUTICALS CO., LTD., priority 2020, published 2023).

Legend:
wild type CK1δ = wild type CK1δ (Homo sapiens, UniProt P48730); assay: CK1δ kinase assay (Kinase-Glo); format: biochemical; conditions: 10 μM ATP, 2 nM wild type CK1δ, 85 min at 25° C.; read-out: CK1δ inhibition (IC50)
Experimental: The CK1δ kinase assay was performed with a buffer (40 μL, pH 7.5) containing 50 mM Tris, 10 mM MgCl2, 1 mM dithiothreitol, 100 μg/mL BSA with 10 μM ATP, 2 nM wild type CK1δ, and 42 μM peptide substrate PLSRTLpSVASLPGL (Flotow et al., 1990) in the presence of 1 μL of a CK1δ inhibitor (e.g., a compound of the present application) or 4% DMSO (e.g., as control). The reaction mixture was incubated for 85 min at 25° C.; detection was carried out as described for the Kinase-Glo Assay (Promega). Luminescent output was measured on the Perkin Elmer Envision plate reader (PerkinElmer, Waltham, Mass.).

MDA-MB-231 cells = assay: Cell proliferation assay (crystal violet); format: cell-based; conditions: various concentrations, 72 hours
Experimental: MDA-MB-231 cells treated with a compound of the present application (e.g., compound 1-1, 2-5, 1-14 and 3-8, respectively) were seeded at a density of 5×10^4cells/well in 12-well plate and incubated at 37° C. with 5% CO2. After 72 hours of culturing, the cells were washed with PBS, fixed in 4% formaldehyde for 15 minutes and stained with 0.1% crystal violet for 20 minutes. Cells were washed with water and the staining was extracted with 10% acetic acid for 20 minutes and absorbance was measured at 590 nm. The experiments were performed in triplicates.

[1] = system: MDA-MB-231 cells (breast cancer cells); assay: Transwell cell migration assay; format: cell-based; conditions: MDA-MB-231, 24 h; for relative migration (%) of cells: FIG. 61; for migrated cells: FIGS. 62-67
Experimental: MDA-MB-231 cells (breast cancer cells) were starved in 0.5% serum-DMEM for 8 hours. For the migration assay, a total of 5×10^4cells were suspended in 500 μL of serum-free DMEM medium and seeded into the upper chamber of a […] pore size insert. Then, 750 μL of DMEM (containing 10% FBS) with or without the compound of the present application was added to the lower compartment. After incubation at 37° C. for 24 h, migrated cells were washed with PBS, fixed in 4% PFA and stained for 30 min in crystal violet solution (0.1% crystal violet). […] Each insert was photographed in 3 random fields at a magnification of 40×.

Sequence of wild type CK1δ (P48730 whole entry): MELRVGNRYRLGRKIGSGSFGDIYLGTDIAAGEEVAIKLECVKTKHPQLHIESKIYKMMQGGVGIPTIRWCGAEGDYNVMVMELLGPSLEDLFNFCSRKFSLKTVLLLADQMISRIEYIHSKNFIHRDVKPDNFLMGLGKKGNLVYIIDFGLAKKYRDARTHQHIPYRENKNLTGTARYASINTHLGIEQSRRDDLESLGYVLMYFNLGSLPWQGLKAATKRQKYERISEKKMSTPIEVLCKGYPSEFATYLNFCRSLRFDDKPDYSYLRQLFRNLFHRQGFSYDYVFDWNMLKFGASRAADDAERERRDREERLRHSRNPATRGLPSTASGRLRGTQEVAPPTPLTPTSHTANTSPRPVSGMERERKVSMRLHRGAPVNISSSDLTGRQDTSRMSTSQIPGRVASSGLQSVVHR

Row | IC50 (wild type CK1δ) [nM] | SMILES | relative proliferation (%) of cells (MDA-MB-231 cells) | relative migration (%) of cells [1] | migrated cells [1]
1 | 61.5 | CC(=O)N1CCn2nc(-c3ccc(F)cc3)c(-c3ccncc3)c2C1 [Compound 1-14, 1-(2-(4-fluorophenyl)-3-(pyridin-4-yl)-6,7-dihydropyrazolo[1,5-a]pyrazin-5(4H)-yl)ethan-1-one] | affected in a concentration dependent manner | reduced | suppressed the migration
2 | 408 | Fc1ccc(-c2nc3c(n2-c2ccncc2)CCCC3)cc1 [Compound 2-5, 2-(4-fluorophenyl)-1-(pyridin-4-yl)-4,5,6,7-tetrahydro-1H-benzo[d]imidazole] | affected in a concentration dependent manner | reduced | suppressed the migration
